In EP0569777A2 (Bayer Corporation, priority 1992, dated 1993):
“Also recorded” adds a separate entry of the source.

Legend:
[1] = system: human brain P-2 derived aprotinin binding pool Y protease (chymotryptic-like serine protease); test: Immunoblot assay of APP degradation by the pool Y serine protease; type: biochemical; details: pool Y 14 ug/ml, APP 35 nM
Description: Reactions were initiated at 37°C by enzyme addition to achieve the following initial component concentrations in a 16 ul volume: pool Y # 3-5 (14 ug/ml) after purification on a superdex 75 column, APP (35 nM), in 30 mM Mes buffer pH 6.5. Reactions were terminated by addition of 7.5 ul of 3X sample buffer. Immunoblots were developed using the rabbit antiserum to the APP C-terminal domain according to example 8. […] The following controls were also run: no inhibitor (lane 12), ethanol (lane 3), methanol (lane 5), pool Y only (lane 2), APP only at time zero (lane 13) and 4 hr (lane 14). Lanes 1 and 7 respectively show prestained Mr markers and the C-100 standard. Panel (b) 1.8 uM alpha-1-antichymotrypsin (lane 2), 156 uM TLCK (lane 3), 46 uM chymotrypsin inhibitor I (lane 4), 119 uM chymotrypsin inhibitor II (lane 5), 4 uM alpha-2-antiplasmin (lane 6), 51 uM alpha-1-antitrypsin (lane 7), 98 uM chymostatin administered in DMSO (lane 10), 153 uM methanolic TPCK (lane 12). Controls included: no inhibitor (lane 8), DMSO (lane 11), and methanol (lane 13). Pre-stained molecular weight markers and C-100 standards were applied to lanes 1 and 9 respectively. Incubation times of 4 and 2 hr were used in panels a) and b) respectively.
• i) Sub-cellular fractionation. This was performed essentially as described in Method 1, above. • ii) Solubilization. This was performed essentially as described in Method 1, above. • iii) Aprotinin-sepharose chromatography. Soluble (230 mg), P-2 (216 mg) or microsomal fraction (47 mg) described above was applied to a column of aprotinin sepharose (Sigma, catalog # 42268, 1.5 X 10 cm), previously equilibrated with 20 mM Tris HCl buffer pH 7.0. Once loaded the column was washed with equilibration buffer (100 ml), and then eluted with 60 ml of 50 mM sodium acetate buffer pH 5.0 containing 500 mM sodium chloride. The flow rate was 1.0 ml/min throughout. Eluted fractions (4 ml) were monitored at 280 nm, analysed using the Bradford protein assay, and examined for APP C-terminal processing activity as described in Example 8, using recombinant APP derived by expression in a baculo virus system. […] Active fractions from the purification of the P-2 fraction on aprotinin-sepharose were pooled, dialyzed against 50 mM Tris-HCl pH 7.5 and applied to a mono-Q column (HR 5/5), previously equilibrated with dialysis buffer. Once loaded, the column was eluted essentially as described in Method 1. above. Active fractions (2 ml), were monitored for A 280 nm, total protein (Bradford assay), and for their capacity for baculo virus derived APP C-terminal processing. […] Pools X, Y, and Z were each concentrated to either 2 ml (pool X and Y) or 3.6 ml (pool z) and separately applied to a Superdex 75 column (Pharmacia, Piscataway NJ.) previously equilibrated with 50 mM Tris-HCl pH 7.5, containing 150 mM sodium chloride. Once loaded, the column was eluted with equilibration buffer. Chromatography was performed at a flow rate of 1.0 ml/min throughout. Fractions (1 ml) were monitored for A 280 nm, total protein (Bradford assay) and for C-terminal processing of baculo expressed APP. The gel filtration was calibrated by chromatography of each of the following standard proteins: Thyroglobulin (670 kDa), bovine gamma globulin (158 kDa), ovalbumin (44 kDa), myoglobin (17.5 kDa) and vitamin B 12 (1.35 kDa).

C286.8A = test: Competitive EIA, peptide epitope mapping of monoclonal antibody C286.8A; type: binding, Murine; details: Figure 4; plates coated with 50 ng of synthetic APP 695 (597-638); C286.8A (80 ng of IgG) preincubated 60 min at room temperature with competitor peptide
Description: Following incubation for 60 min at room temperature, plates were washed, and the amount of bound antibody determined by development with horseradish peroxidase-coupled goat-anti mouse polyclonal antibody according to standard procedures (Wunderlich et al., 1992, J. of Immunol. Methods 147:1). Percent competition (% C) of antibody binding to the plate was calculated from the absorbance at 450 nm data using the following equation: % C = 1.0 -(O.D. (+ competitor) - O.D. blank)/(O.D. (- competitor) - O.D. blank)X 100 [formula]

[2] = system: human AD brain fraction P2 VII APP degrading activity; test: Immunoblot assay of APP 695 degradation by Mono-Q pool P2 VII; type: biochemical; details: trial A, PMSF 0.8mM, pH 6.5, 24 hrs, 37°C
Description: ii) Solubilization. The membranous control or AD subfractions (P-2 or M) were solubilized by adjusting to the following conditions: 2% (v/v) Triton X-100 containing 50 mM Tris HCl buffer, pH 7.5. After stirring at 4°C for 3.5 hrs, the suspensions were centrifuged at 105,000 g x 60 min in a Beckman 70 Ti rotor. The following final protein concentrations were used in solubilization, for P-2 (3.9 to 4.0 mg/ml); and for M (1.4 to 1.6 mg/ml). Solubilized supernatants were stored at -70°C for later use. The soluble fraction was not treated with detergent but rather was adjusted to 50 mM in Tris HCl, pH 7.5, by the addition of stock 1M buffer. iii) Ion-exchange chromatography. Chromatography was performed using a Gilson gradient liquid chromatograph (model 305 and 306 pumps) equipped with a 50 ml Rheodyne stainless steel loop injector model 7125, and connected to a Mono Q HR 10/10 column (Pharmacia, Piscataway, NJ). Absorbance of column effluent was monitored at 280 nm using a Pharmacia UV-M detector and a Kippen-zonen chart recorder. […] In the initial studies, eluted fractions were monitored for A280 nm, total protein (Bradford assay), and peptidase activity (as decsribed in Examples 2 and 3). […] Fractions were monitored for A 280 nm, total protein (Bradford assay), peptidase activity, and activity for C-terminal processing of recombinant APP. […]

[3] = Mono-Q ion-exchange fractions of P-2, S and M subfractions of control and AD human cortex; details: 37°C, up to 24 hrs
P-2 enzyme (peak B) = P-2 enzyme (peak B) further purified on Superose 6HR (17.5 ug/ml) in acetate, Mes and Tris pH 5.0; details: human, 37 C, up to 24hr
cathepsin D = test: Cathepsin D (2.5 ug/ml), sodium chloride (75 mM), 135 mM in each of tris, Mes and acetate buffer pH 5.0; details: human, 37 C
P-2 peak B enzyme = P-2 peak B enzyme (7.5 ug/ml), sodium chloride (75 mM), 135 mM in each of tris, Mes and acetate buffer pH 5.0; details: human, 37 C
[4] = system: cathepsin D (human liver, Cal Biochem); test: Cathepsin D (2.8 ug/ml) in cocktail buffer 130 mM in each of acetate, Mes and Tris pH 5.0; details: 37 C, up to 24hr

N=C(N)c1ccccc1 [benzamidine]
Inhibitor sensitivity of the pool Y protease (APP degradation) ([1]; 5 mM benzamidine, Mes pH 6.5, 4 hr, Figure 18a): without effect

597-638: Synthetic peptide containing amino acids 597-638 of human APP695; amino acids 1-42 of the beta-amyloid sequence
ability to block binding of C286.8A to APP 597-638 (C286.8A): able to inhibit C286.8A binding in a dose-dependent fashion

APP 645-695: Synthetic peptide, amino acids 645-695 of human APP695, C-terminal domain, devoid of any beta-amyloid sequence (AADRGLTTRPGSGLTNIKTEEISEVKMDAEFRHDSGYEVHHQKLVFFAEDV; isoform APP695; UniProt P05067 645-695, looked up, fragment)
ability to block binding of C286.8A to APP 597-638 (C286.8A): did not inhibit binding

O=S(=O)(F)Cc1ccccc1 [PMSF]
Inhibitor sensitivity of the pool Y protease (APP degradation) ([1]; 860 uM PMSF in methanol, Mes pH 6.5, 4 hr, Figure 18a): inhibited | Inhibitors (pH 6.5): compounds causing complete inhibition are listed ([2]; 11.5 kDa fragment): PMSF | Inhibitors (pH 6.5): compounds causing complete inhibition are listed ([2]; >11.5 kDa fragment): PMSF

Cc1ccc(S(=O)(=O)N[C@@H](Cc2ccccc2)C(=O)CCl)cc1 [TPCK]
Inhibitor sensitivity of the pool Y protease (APP degradation) ([1]; 153 uM methanolic TPCK, Mes pH 6.5, 2 hr, Figure 18b): strongly inhibited

N-dansyl-Ile-Ser-Glu-Val-Lys-Met-Asp-Ala-Glu-Phe-Arg-His-Asp-Asp-Asp-Asp
cleaved bond [3]: V-K, major and K-M and M-D and S-E and E-V

N-Dansyl-Ile-Ser-Glu-Val-Lys-Met-Asp-Ala-Glu-Phe-Arg-NH2
cleaved bond (P-2 enzyme (peak B)): Met-Asp, minor; also recorded: Glu-Val, major | cleaved bond (cathepsin D): E-V and M-D | cleaved bond (P-2 peak B enzyme): E-V and M-D | cleaved bond [4]: Glu-Val, major; also recorded: Met-Asp, minor

CC(C)CC(NC(=O)C1OC1C(=O)O)C(=O)NCCCCN=C(N)N (stereo not shown) [E-64]
Inhibitor sensitivity of the pool Y protease (APP degradation) ([1]; 350 uM E-64, Mes pH 6.5, 4 hr, Figure 18a): unaffected

APP 608-624: Synthetic peptide, amino acids 608-624 of human APP695; beta-amyloid peptide sequence 12-28 (PVNGEFSLDDLQPWHSF; isoform APP695; UniProt P05067 608-624, looked up, fragment)
ability to block binding of C286.8A to APP 597-638 (C286.8A): did not inhibit binding

CC(C)C[C@H](NC(=O)[C@@H](NC(=O)N[C@@H](Cc1ccccc1)C(=O)O)[C@@H]1CCN=C(N)N1)C(=O)N[C@H](C=O)Cc1ccccc1 [chymostatin]
Inhibitor sensitivity of the pool Y protease (APP degradation) ([1]; 98 uM chymostatin administered in DMSO, Mes pH 6.5, 2 hr, Figure 18b): Weak inhibition

Cc1ccc(S(=O)(=O)N[C@@H](CCCCN)C(=O)CCl)cc1 [TLCK]
Inhibitor sensitivity of the pool Y protease (APP degradation) ([1]; 156 uM TLCK, Mes pH 6.5, 2 hr, Figure 18b): did not inhibit at all

APP 621-631: Synthetic peptide, amino acids 621-631 of human APP695; beta-amyloid peptide sequence 25-35 (WHSFGADSVPA; isoform APP695; UniProt P05067 621-631, looked up, fragment)
ability to block binding of C286.8A to APP 597-638 (C286.8A): did not inhibit binding

597-624: Synthetic peptide containing amino acids 597-624 of human APP695; amino acids 1-28 of the beta-amyloid sequence (LTETKTTVELLPVNGEFSLDDLQPWHSF; isoform APP695; UniProt P05067 597-624, looked up, fragment)
ability to block binding of C286.8A to APP 597-638 (C286.8A): able to inhibit C286.8A binding in a dose-dependent fashion

APP 597-612: Synthetic peptide containing amino acids 597-612 of human APP695; amino acids 1-16 of the beta-amyloid sequence (LTETKTTVELLPVNGE; isoform APP695; UniProt P05067 597-612, looked up, fragment)
ability to block binding of C286.8A to APP 597-638 (C286.8A): able to inhibit C286.8A binding in a dose-dependent fashion
